Measurements taken from PubChem BioAssay AID1963849 (Molecular Pharmacology Branch, DTP, NCI, 2024).

System: 299254-011-R-J1-PDC complex spheroid viability
Experiment: Anticancer human tumor 299254-011-R-J1-PDC patient-derived melanoma cell line growth inhibition [POLQ]
Settings: for IC50: curve of first compound; for viability, T/C: stronger effect = lower value
Summary of the method: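 PDC + HUVEC + MSC complex spheroids; POLQ inhibitors ± partner drugs; top conc. at/near clinical Cmax, else 10 microM (SN-38 1 microM), half-log dilutions; 37 degrees C, 5% CO2.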

[1] = second compound 0.0316 µM, first compound 0.0316 µM
[2] = second compound 0.0316 µM, first compound 0.1 µM
[3] = second compound 0.0316 µM, first compound 0.316 µM
[4] = second compound 0.0316 µM, first compound 1 µM
[5] = second compound 0.1 µM, first compound 0.0316 µM
[6] = second compound 0.1 µM, first compound 0.1 µM
[7] = second compound 0.1 µM, first compound 0.316 µM
[8] = second compound 0.1 µM, first compound 1 µM
[9] = second compound 0.316 µM, first compound 0.0316 µM
[10] = second compound 0.316 µM, first compound 0.1 µM
[11] = second compound 0.316 µM, first compound 0.316 µM
[12] = second compound 0.316 µM, first compound 1 µM
[13] = second compound 1 µM, first compound 0.0316 µM
[14] = second compound 1 µM, first compound 0.1 µM
[15] = second compound 1 µM, first compound 0.316 µM
[16] = second compound 1 µM, first compound 1 µM
[17] = second compound 3.16 µM, first compound 0.0316 µM
[18] = second compound 3.16 µM, first compound 0.1 µM
[19] = second compound 3.16 µM, first compound 0.316 µM
[20] = second compound 3.16 µM, first compound 1 µM
[21] = second compound 10 µM, first compound 0.0316 µM
[22] = second compound 10 µM, first compound 0.1 µM
[23] = second compound 10 µM, first compound 0.316 µM
[24] = second compound 10 µM, first compound 1 µM
[25] = second compound 0.0316 µM, first compound 3.16 µM
[26] = second compound 0.0316 µM, first compound 10 µM
[27] = second compound 0.1 µM, first compound 3.16 µM
[28] = second compound 0.1 µM, first compound 10 µM
[29] = second compound 0.316 µM, first compound 3.16 µM
[30] = second compound 0.316 µM, first compound 10 µM
[31] = second compound 1 µM, first compound 3.16 µM
[32] = second compound 1 µM, first compound 10 µM
[33] = second compound 3.16 µM, first compound 3.16 µM
[34] = second compound 3.16 µM, first compound 10 µM
[35] = second compound 10 µM, first compound 3.16 µM
[36] = second compound 10 µM, first compound 10 µM
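Also: spheroids exposed to drugs for one week before measurement.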
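For viability, T/C in this document: percent viability relative to DMSO vehicle control taken as 100%.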

SMILES: CCc1c2c(nc3ccc(O)cc13)-c1cc3c(c(=O)n1C2)COC(=O)[C@]3(O)CC + COC1C(OC(N)=O)C(O)C(Oc2ccc3c(O)c(NC(=O)c4ccc(O)c(CC=C(C)C)c4)c(=O)oc3c2C)OC1(C)C
- IC50 (second compound 0.0316 µM): > 1 µM
- IC50 (second compound 0.1 µM): > 1 µM
- IC50 (second compound 0.316 µM): > 1 µM
- IC50 (second compound 1 µM): > 1 µM
- IC50 (second compound 3.16 µM): > 1 µM
- IC50 (second compound 10 µM): > 1 µM
- viability, T/C (second compound 0.0316 µM, first compound 0.00316 µM): 109%
- viability, T/C (second compound 0.0316 µM, first compound 0.01 µM): 77.5%
- viability, T/C [1]: 69.4%
- viability, T/C [2]: 65.4%
- viability, T/C [3]: 70.4%
- viability, T/C [4]: 48.9%
- viability, T/C (second compound 0.1 µM, first compound 0.00316 µM): 114%
- viability, T/C (second compound 0.1 µM, first compound 0.01 µM): 91.8%
- viability, T/C [5]: 64.3%
- viability, T/C [6]: 64.5%
- viability, T/C [7]: 66.3%
- viability, T/C [8]: 57.8%
- viability, T/C (second compound 0.316 µM, first compound 0.00316 µM): 91.8%
- viability, T/C (second compound 0.316 µM, first compound 0.01 µM): 87.1%
- viability, T/C [9]: 77.2%
- viability, T/C [10]: 64.8%
- viability, T/C [11]: 61.5%
- viability, T/C [12]: 56.2%
- viability, T/C (second compound 1 µM, first compound 0.00316 µM): 112%
- viability, T/C (second compound 1 µM, first compound 0.01 µM): 92.1%
- viability, T/C [13]: 77.9%
- viability, T/C [14]: 62.5%
- viability, T/C [15]: 64%
- viability, T/C [16]: 59.4%
- viability, T/C (second compound 3.16 µM, first compound 0.00316 µM): 93.9%
- viability, T/C (second compound 3.16 µM, first compound 0.01 µM): 77.5%
- viability, T/C [17]: 68.8%
- viability, T/C [18]: 69.4%
- viability, T/C [19]: 63%
- viability, T/C [20]: 56.6%
- viability, T/C (second compound 10 µM, first compound 0.00316 µM): 99.2%
- viability, T/C (second compound 10 µM, first compound 0.01 µM): 89.3%
- viability, T/C [21]: 71.7%
- viability, T/C [22]: 60.9%
- viability, T/C [23]: 63.6%
- viability, T/C [24]: 48.8%

SMILES: COc1ccc([C@@H](O)c2cc(-c3ncnc4cc(N5CCOCC5)ccc34)c(F)cc2Cl)nn1 + Cc1cccc(N(C)C(=O)C2C(O)CCN2c2nc(C)cc(C(F)(F)F)c2C#N)c1
- IC50 (second compound 0.0316 µM): > 10 µM
- IC50 (second compound 0.1 µM): > 10 µM
- IC50 (second compound 0.316 µM): 8.36 µM
- IC50 (second compound 1 µM): 8.8 µM
- IC50 (second compound 3.16 µM): 6.8 µM
- IC50 (second compound 10 µM): 5.75 µM
- viability, T/C [1]: 105%
- viability, T/C [2]: 102%
- viability, T/C [3]: 96.7%
- viability, T/C [4]: 99%
- viability, T/C [25]: 87.9%
- viability, T/C [26]: 49.6%
- viability, T/C [5]: 90.1%
- viability, T/C [6]: 89.2%
- viability, T/C [7]: 112%
- viability, T/C [8]: 92.5%
- viability, T/C [27]: 95.9%
- viability, T/C [28]: 53.4%
- viability, T/C [9]: 101%
- viability, T/C [10]: 108%
- viability, T/C [11]: 97.9%
- viability, T/C [12]: 86.2%
- viability, T/C [29]: 82.1%
- viability, T/C [30]: 43.6%
- viability, T/C [13]: 108%
- viability, T/C [14]: 97.6%
- viability, T/C [15]: 104%
- viability, T/C [16]: 111%
- viability, T/C [31]: 82.6%
- viability, T/C [32]: 46%
- viability, T/C [17]: 102%
- viability, T/C [18]: 102%
- viability, T/C [19]: 100%
- viability, T/C [20]: 90.2%
- viability, T/C [33]: 77.8%
- viability, T/C [34]: 36.5%
- viability, T/C [21]: 94.6%
- viability, T/C [22]: 82.8%
- viability, T/C [23]: 109%
- viability, T/C [24]: 88.5%
- viability, T/C [35]: 66%
- viability, T/C [36]: 35.3%

SMILES: CNCc1ccc(-c2[nH]c3cc(F)cc4c3c2CCNC4=O)cc1 + COC1C(OC(N)=O)C(O)C(Oc2ccc3c(O)c(NC(=O)c4ccc(O)c(CC=C(C)C)c4)c(=O)oc3c2C)OC1(C)C
- IC50 (second compound 0.0316 µM): > 10 µM
- IC50 (second compound 0.1 µM): > 10 µM
- IC50 (second compound 0.316 µM): > 10 µM
- IC50 (second compound 1 µM): > 10 µM
- IC50 (second compound 3.16 µM): > 10 µM
- IC50 (second compound 10 µM): > 10 µM
- viability, T/C [1]: 99.5%
- viability, T/C [2]: 98.7%
- viability, T/C [3]: 102%
- viability, T/C [4]: 117%
- viability, T/C [25]: 114%
- viability, T/C [26]: 103%
- viability, T/C [5]: 114%
- viability, T/C [6]: 106%
- viability, T/C [7]: 102%
- viability, T/C [8]: 107%
- viability, T/C [27]: 118%
- viability, T/C [28]: 133%
- viability, T/C [9]: 91.6%
- viability, T/C [10]: 94.9%
- viability, T/C [11]: 98.7%
- viability, T/C [12]: 105%
- viability, T/C [29]: 97.2%
- viability, T/C [30]: 116%
- viability, T/C [13]: 91.8%
- viability, T/C [14]: 105%
- viability, T/C [15]: 105%
- viability, T/C [16]: 117%
- viability, T/C [31]: 117%
- viability, T/C [32]: 115%
- viability, T/C [17]: 113%
- viability, T/C [18]: 90.9%
- viability, T/C [19]: 95.4%
- viability, T/C [20]: 118%
- viability, T/C [33]: 105%
- viability, T/C [34]: 111%
- viability, T/C [21]: 113%
- viability, T/C [22]: 104%
- viability, T/C [23]: 111%
- viability, T/C [24]: 106%
- viability, T/C [35]: 96.3%
- viability, T/C [36]: 100%

SMILES: CCCS(=O)(=O)Nc1ccc(F)c(C(=O)c2c[nH]c3ncc(-c4ccc(Cl)cc4)cc23)c1F + Cc1cccc(N(C)C(=O)C2C(O)CCN2c2nc(C)cc(C(F)(F)F)c2C#N)c1
- IC50 (second compound 0.0316 µM): > 10 µM
- IC50 (second compound 0.1 µM): 8.99 µM
- IC50 (second compound 0.316 µM): 9.29 µM
- IC50 (second compound 1 µM): 9.29 µM
- IC50 (second compound 3.16 µM): > 10 µM
- IC50 (second compound 10 µM): > 10 µM
- viability, T/C [1]: 117%
- viability, T/C [2]: 95.7%
- viability, T/C [3]: 119%
- viability, T/C [4]: 109%
- viability, T/C [25]: 123%
- viability, T/C [26]: 50%
- viability, T/C [5]: 104%
- viability, T/C [6]: 107%
- viability, T/C [7]: 109%
- viability, T/C [8]: 114%
- viability, T/C [27]: 115%
- viability, T/C [28]: 44%
- viability, T/C [9]: 107%
- viability, T/C [10]: 112%
- viability, T/C [11]: 104%
- viability, T/C [12]: 110%
- viability, T/C [29]: 103%
- viability, T/C [30]: 46.3%
- viability, T/C [13]: 93.1%
- viability, T/C [14]: 103%
- viability, T/C [15]: 103%
- viability, T/C [16]: 107%
- viability, T/C [31]: 109%
- viability, T/C [32]: 46.4%
- viability, T/C [17]: 110%
- viability, T/C [18]: 124%
- viability, T/C [19]: 108%
- viability, T/C [20]: 108%
- viability, T/C [33]: 117%
- viability, T/C [34]: 52.6%
- viability, T/C [21]: 100%
- viability, T/C [22]: 110%
- viability, T/C [23]: 113%
- viability, T/C [24]: 107%
- viability, T/C [35]: 110%
- viability, T/C [36]: 52.4%
